# Measured values published in patent US9266939B2, “Compositions comprising natriuretic peptides and methods of use thereof” (Alexion Pharmaceuticals, Inc., priority 2010, dated 2016).
# Where “and” joins values, the source holds several entries; their conditions need not be identical. Equal entries are not always repeated. Where two headings read alike, the source gives them in different places. Bridge positions count the residues as written; N and C are the ends. Ends that are not written are not given here. Peptide text beside a SMILES is read from it.
# Tests used:
# NPR-B [1] = target: T1, NPR-B (Homo sapiens, UniProt P20594); assay: Membrane guanylyl cyclase (cGMP) assay, NPR-B; format: biochemical
# T1 sequence (P20594 23-1047): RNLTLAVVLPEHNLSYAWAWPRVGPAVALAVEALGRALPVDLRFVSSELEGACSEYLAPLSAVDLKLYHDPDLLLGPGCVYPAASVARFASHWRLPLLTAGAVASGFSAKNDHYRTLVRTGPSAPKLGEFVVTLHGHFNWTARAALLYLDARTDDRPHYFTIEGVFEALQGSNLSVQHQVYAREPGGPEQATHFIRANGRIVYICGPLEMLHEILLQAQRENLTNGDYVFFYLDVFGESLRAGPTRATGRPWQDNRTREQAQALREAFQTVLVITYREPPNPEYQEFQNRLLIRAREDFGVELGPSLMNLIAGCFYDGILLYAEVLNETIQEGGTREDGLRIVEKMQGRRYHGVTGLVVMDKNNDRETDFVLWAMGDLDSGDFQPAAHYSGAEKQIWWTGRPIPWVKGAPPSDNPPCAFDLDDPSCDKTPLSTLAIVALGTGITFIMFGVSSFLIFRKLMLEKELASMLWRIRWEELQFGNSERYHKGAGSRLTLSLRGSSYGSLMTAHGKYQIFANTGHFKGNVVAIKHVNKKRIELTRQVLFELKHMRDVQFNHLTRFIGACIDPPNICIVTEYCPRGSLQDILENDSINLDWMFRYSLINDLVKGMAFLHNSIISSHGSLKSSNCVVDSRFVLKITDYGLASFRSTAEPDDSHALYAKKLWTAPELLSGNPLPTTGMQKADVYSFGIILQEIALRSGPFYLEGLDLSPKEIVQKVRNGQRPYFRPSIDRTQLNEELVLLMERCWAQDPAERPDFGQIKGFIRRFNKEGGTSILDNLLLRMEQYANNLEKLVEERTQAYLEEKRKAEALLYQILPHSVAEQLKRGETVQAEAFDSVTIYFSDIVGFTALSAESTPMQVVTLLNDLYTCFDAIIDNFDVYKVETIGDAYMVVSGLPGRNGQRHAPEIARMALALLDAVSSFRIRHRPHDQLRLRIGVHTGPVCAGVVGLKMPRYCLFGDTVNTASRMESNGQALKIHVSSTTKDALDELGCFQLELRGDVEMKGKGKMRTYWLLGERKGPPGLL
# NPR-A = NPR-A (Homo sapiens, UniProt P16066); format: biochemical
# Sequence of NPR-A (P16066 33-1061): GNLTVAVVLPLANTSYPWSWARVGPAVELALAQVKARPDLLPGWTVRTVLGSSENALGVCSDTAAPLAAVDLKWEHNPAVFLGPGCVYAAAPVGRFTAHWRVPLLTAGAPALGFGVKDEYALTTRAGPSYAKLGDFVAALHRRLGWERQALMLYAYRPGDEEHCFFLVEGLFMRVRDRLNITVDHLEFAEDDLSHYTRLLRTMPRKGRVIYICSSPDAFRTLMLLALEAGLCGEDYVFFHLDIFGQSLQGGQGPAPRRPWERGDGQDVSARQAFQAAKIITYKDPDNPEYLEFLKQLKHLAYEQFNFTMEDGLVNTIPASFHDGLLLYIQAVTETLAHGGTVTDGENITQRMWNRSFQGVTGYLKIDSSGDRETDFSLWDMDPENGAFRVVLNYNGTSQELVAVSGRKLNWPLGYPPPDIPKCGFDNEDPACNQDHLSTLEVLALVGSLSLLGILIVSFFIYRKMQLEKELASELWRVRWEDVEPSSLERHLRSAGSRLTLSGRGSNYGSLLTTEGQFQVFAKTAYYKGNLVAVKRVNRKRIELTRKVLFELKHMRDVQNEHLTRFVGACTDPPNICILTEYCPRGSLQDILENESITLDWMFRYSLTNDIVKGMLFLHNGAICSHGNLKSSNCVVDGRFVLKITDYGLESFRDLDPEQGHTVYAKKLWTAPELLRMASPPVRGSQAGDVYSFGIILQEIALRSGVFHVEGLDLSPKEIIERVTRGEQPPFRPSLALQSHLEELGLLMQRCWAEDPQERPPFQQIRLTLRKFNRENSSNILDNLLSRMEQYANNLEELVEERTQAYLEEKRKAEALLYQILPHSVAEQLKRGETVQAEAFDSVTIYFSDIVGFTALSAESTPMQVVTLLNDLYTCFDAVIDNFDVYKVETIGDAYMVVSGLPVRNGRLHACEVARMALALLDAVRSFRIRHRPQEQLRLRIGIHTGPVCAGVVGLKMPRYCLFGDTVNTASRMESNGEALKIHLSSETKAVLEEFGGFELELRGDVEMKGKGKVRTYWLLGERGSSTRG
# [2] = target: T2, neutral endopeptidase (NEP) (Homo sapiens, UniProt P08473)
# T2 sequence (P08473 whole entry): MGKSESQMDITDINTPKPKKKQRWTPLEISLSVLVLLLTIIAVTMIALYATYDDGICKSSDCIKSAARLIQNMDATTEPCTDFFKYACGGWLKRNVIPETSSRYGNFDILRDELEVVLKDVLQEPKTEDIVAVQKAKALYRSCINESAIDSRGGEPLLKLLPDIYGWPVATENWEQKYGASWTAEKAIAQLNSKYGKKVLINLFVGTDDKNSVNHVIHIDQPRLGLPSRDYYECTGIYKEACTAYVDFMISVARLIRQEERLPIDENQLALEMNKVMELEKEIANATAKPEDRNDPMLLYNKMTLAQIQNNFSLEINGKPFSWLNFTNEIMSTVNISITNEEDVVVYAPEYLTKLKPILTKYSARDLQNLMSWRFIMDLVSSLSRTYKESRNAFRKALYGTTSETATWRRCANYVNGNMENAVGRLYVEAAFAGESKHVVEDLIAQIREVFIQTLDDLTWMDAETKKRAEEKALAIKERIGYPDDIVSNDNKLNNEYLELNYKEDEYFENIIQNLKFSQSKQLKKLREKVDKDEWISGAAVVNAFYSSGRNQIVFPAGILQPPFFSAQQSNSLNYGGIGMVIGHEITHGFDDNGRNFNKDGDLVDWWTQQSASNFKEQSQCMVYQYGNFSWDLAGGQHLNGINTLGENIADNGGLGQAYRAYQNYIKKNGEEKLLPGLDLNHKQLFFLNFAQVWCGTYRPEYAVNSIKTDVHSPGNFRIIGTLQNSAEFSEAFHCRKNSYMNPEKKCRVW
# [3] = target: T2, neutral endopeptidase (NEP); assay: in vitro; conditions: isolated enzyme neprilysin, pH 7.5
# NPR-B [4] = target: T1, NPR-B; assay: Whole cell guanylyl cyclase (cGMP) assay, NPR-B; format: cell-based; set-up: expressed in transfected cells; conditions: for Emax: read-out: % Efficacy
# Protocol: HEK293S cells in a semi-confluent 75 cm2 flask are transfected with 30 μg of plasmid DNA coding for the appropriate receptor, e.g., human NPR-B or NPR-A, using Lipofectamine-2000CD. Alternatively, a stable polyclonal HEK293 S cell line expressing either human NPR-B or NPR-A was used. 24 hours after transfection, cells are trypsinized and plated into 48-well plates at 1×10^5 cells/well. Guanylyl cyclase assay is carried out 24 hours post-plating. Cells are first incubated for 30 minutes at 37° C. with serum-free DMEM medium. Then, they are incubated in triplicate with or without increasing concentrations of reference or test proteins in serum-free DMEM supplemented with 1 mM IBMX and 0.5% BSA, at 37° C. for 30 minutes to one hour. CNP serves as a suitable reference for NPR-B, while ANP is a suitable reference for NPR-A. Finally, cells are washed with ice-cold PBS and solubilized in lysis buffer from Catchpoint cGMP kit (Molecular devices). Concentrations of cGMP in lysate are determined using the Catchpoint cGMP kit. Dose-response curves are analysed with GraphPad Prism 5 software using non-linear regression with four-parameter logistic equation.
Compound,Approximate fold gain in selectivity versus CDNP (NPR-B [1]),Approximate fold selectivity NPR-B versus NPR-A (NPR-B [1]) [fold],NPR-B selective efficacy gain (NPR-B [1]) [%],% efficacy versus CDNP on NPR-A (NPR-A),% loss in efficacy versus CDNP (NPR-A) [%],sensitivity to NEP degradation [2],% efficacy versus CDNP on NPR-B (NPR-B [1]) [%],Resist NEP degradation (No/Yes) [2],remaining at 4 h [3] [%],EC50 Ratio versus CNP22 (NPR-B [4]),Rescue Ratio Average (NPR-B [4]),Rescue Ratio versus CNP22 (NPR-B [4]),Rescue range (NPR-B [4]) [nM],potency compared with the other tested peptides (NPR-B [4]),EC50 (NPR-B [4]; EC50) [nM],Emax (NPR-B [4]) [%],% of control after 240 min [2] [%],EC50 (NPR-B [4]; EC50 on NPR-B) [nM],Rescue range (NPR-B [4]; agonist concentration producing cGMP as 2.4 nM (lower) and 14 nM (high) CNP22) [nM],"Rescue Ratio Average (NPR-B [4]; peptides, NPR-B whole cell cGMP assay)"
"CC[C@H](C)[C@@H]1NC(=O)[C@H](CCCNC(=N)N)NC(=O)[C@H](CC(=O)O)NC(=O)[C@H](CC(C)C)NC(=O)[C@H](CCCCN)NC(=O)[C@H](CC(C)C)NC(=O)CNC(=O)[C@H](Cc2ccccc2)NC(=O)[C@@H](NC(=O)CNC(=O)[C@H](CCCCN)NC(=O)[C@H](CO)NC(=O)[C@H](CC(C)C)NC(=O)CN)CSSC[C@@H](C(=O)N2CCC[C@H]2C(=O)N[C@@H](CO)C(=O)N[C@@H](CO)C(=O)N[C@@H](C)C(=O)N[C@@H](C)C(=O)N2CCC[C@H]2C(=O)N[C@@H](CCCNC(=N)N)C(=O)N2CCC[C@H]2C(=O)N[C@@H](CC(N)=O)C(=O)N[C@@H](C)C(=O)N2CCC[C@H]2C(=O)N[C@@H](CO)C(=O)N[C@H](C(=O)N[C@@H](CO)C(=O)N[C@@H](C)C(=O)O)[C@@H](C)O)NC(=O)CNC(=O)[C@H](CC(C)C)NC(=O)CNC(=O)[C@H](CO)NC(=O)[C@H](CCSC)NC(=O)[C@H](CO)NC(=O)CNC1=O [CDNP-SAA] (HELM PEPTIDE1{G.L.S.K.G.C.F.G.L.K.L.D.R.I.G.S.M.S.G.L.G.C.P.S.S.A.A.P.R.P.N.A.P.S.T.S.A}$PEPTIDE1,PEPTIDE1,6:R3-22:R3$$$V2.0)",15 fold and 14.9 fold,43.5,69,34-69%,69,slightly more sensitive to NEP than CDNP,,,,,,,,,,,,,,
"CC[C@H](C)[C@@H]1NC(=O)[C@H](CCCNC(=N)N)NC(=O)[C@H](CC(=O)O)NC(=O)[C@H](CC(C)C)NC(=O)[C@H](CCCCN)NC(=O)[C@H](CC(C)C)NC(=O)CNC(=O)[C@H](Cc2ccccc2)NC(=O)[C@@H](NC(=O)CNC(=O)[C@H](CCCCN)NC(=O)[C@H](CO)NC(=O)[C@H](CC(C)C)NC(=O)CN)CSSC[C@@H](C(=O)N2CCC[C@H]2C(=O)N[C@@H](CO)C(=O)N[C@@H](CO)C(=O)N[C@@H](CCCNC(=N)N)C(=O)N[C@@H](C)C(=O)N2CCC[C@H]2C(=O)N[C@@H](CCCNC(=N)N)C(=O)N2CCC[C@H]2C(=O)N[C@@H](CC(N)=O)C(=O)N[C@@H](C)C(=O)N2CCC[C@H]2C(=O)N[C@@H](CO)C(=O)N[C@H](C(=O)N[C@@H](CO)C(=O)N[C@@H](C)C(=O)O)[C@@H](C)O)NC(=O)CNC(=O)[C@H](CC(C)C)NC(=O)CNC(=O)[C@H](CO)NC(=O)[C@H](CCSC)NC(=O)[C@H](CO)NC(=O)CNC1=O [CDNP-SRA] (HELM PEPTIDE1{G.L.S.K.G.C.F.G.L.K.L.D.R.I.G.S.M.S.G.L.G.C.P.S.S.R.A.P.R.P.N.A.P.S.T.S.A}$PEPTIDE1,PEPTIDE1,6:R3-22:R3$$$V2.0)",1.2 fold and 1.23 fold,3.59,82,36%,82,comparable NEP sensitivity,118,,,,,,,,,,,,,
"CC[C@H](C)[C@@H]1NC(=O)[C@H](CCCNC(=N)N)NC(=O)[C@H](CC(=O)O)NC(=O)[C@H](CC(C)C)NC(=O)[C@H](CCCCN)NC(=O)[C@H](CC(C)C)NC(=O)CNC(=O)[C@H](Cc2ccccc2)NC(=O)[C@@H](NC(=O)CNC(=O)[C@H](CCCCN)NC(=O)[C@H](CO)NC(=O)[C@H](CC(C)C)NC(=O)CN)CSSC[C@@H](C(=O)N2CCC[C@H]2C(=O)N[C@@H](CO)C(=O)N[C@@H](CO)C(=O)N[C@@H](C)C(=O)N[C@@H](CC(=O)O)C(=O)N2CCC[C@H]2C(=O)N[C@@H](CCCNC(=N)N)C(=O)N2CCC[C@H]2C(=O)N[C@@H](CC(N)=O)C(=O)N[C@@H](C)C(=O)N2CCC[C@H]2C(=O)N[C@@H](CO)C(=O)N[C@H](C(=O)N[C@@H](CO)C(=O)N[C@@H](C)C(=O)O)[C@@H](C)O)NC(=O)CNC(=O)[C@H](CC(C)C)NC(=O)CNC(=O)[C@H](CO)NC(=O)[C@H](CCSC)NC(=O)[C@H](CO)NC(=O)CNC1=O [CDNP-SAD] (HELM PEPTIDE1{G.L.S.K.G.C.F.G.L.K.L.D.R.I.G.S.M.S.G.L.G.C.P.S.S.A.D.P.R.P.N.A.P.S.T.S.A}$PEPTIDE1,PEPTIDE1,6:R3-22:R3$$$V2.0)",28 fold and 28.5 fold,83.2,27,,27,comparable NEP sensitivity,,,,,,,,,,,,,,
EEEEEEHKLRGQEHPNARKYKGANKKGLSKGCFGLKLDRIGSMSGLGC (disulfide 32-48) [KB1(E6)],,,,,,,,Yes,107,5.75,5.6,5.6-5.6,13.4 to 78.1,more potent than the other tested peptides,84.5,109,,,,
EEEEEESGGGGSGGGQGANKKGLSKGCFGLKLDRIGSMSGLGC (disulfide 27-43) [C8(E6) [BC8]],,,,,,,,Yes,103,48.9,52,48-56,116 to 779,,719,97,,,,
"CC[C@H](C)[C@@H]1NC(=O)[C@H](CCCNC(=N)N)NC(=O)[C@H](CC(=O)O)NC(=O)[C@H](CC(C)C)NC(=O)[C@H](CCCCN)NC(=O)[C@H](CC(C)C)NC(=O)CNC(=O)[C@H](Cc2ccccc2)NC(=O)[C@@H](NC(=O)CNC(=O)[C@H](CCCCN)NC(=O)[C@H](CO)NC(=O)[C@H](CC(C)C)NC(=O)CN)CSSC[C@@H](C(=O)O)NC(=O)CNC(=O)[C@H](CC(C)C)NC(=O)CNC(=O)[C@H](CO)NC(=O)[C@H](CCSC)NC(=O)[C@H](CO)NC(=O)CNC1=O [CNP22, reference compound]",,,,,,,,No,0,1.00,,1,,,14.7 ± 3.4,100,0,4.87,2.4 to 14,1
EEEEEESGGGGSGGGKGANQQGLSKGCFGLKLDRIGSMSGLGC (disulfide 27-43) [C9(E6) [BC9]],,,,,,,,Yes,98,79.3,87,76-97,183 to 1358,,1170,95,,,,
